# Laboratory results from paper PMC4428629, “The Structure of an NDR/LATS Kinase–Mob Complex Reveals a Novel Kinase–Coactivator System and Substrate Docking Mechanism” (PLoS Biology, 2015).
# Where two headings read alike, the source gives them in different places. Non-standard residues stand in square brackets, D forms with d. Residues, ends and D or L forms follow the SMILES beside them. pT = C[C@@H](OP(=O)(O)O)[C@H](N)C(=O)O
# T1: Cbk1^251-756-Mob2 (Saccharomyces cerevisiae, UniProt P43563+P53894)
# T1 construct: His6-Cbk1^251–756 was co-expressed with GST-Mob2 (full length or 45–287); His6 (N); made in house
# T1 sequence (P53894 251-756): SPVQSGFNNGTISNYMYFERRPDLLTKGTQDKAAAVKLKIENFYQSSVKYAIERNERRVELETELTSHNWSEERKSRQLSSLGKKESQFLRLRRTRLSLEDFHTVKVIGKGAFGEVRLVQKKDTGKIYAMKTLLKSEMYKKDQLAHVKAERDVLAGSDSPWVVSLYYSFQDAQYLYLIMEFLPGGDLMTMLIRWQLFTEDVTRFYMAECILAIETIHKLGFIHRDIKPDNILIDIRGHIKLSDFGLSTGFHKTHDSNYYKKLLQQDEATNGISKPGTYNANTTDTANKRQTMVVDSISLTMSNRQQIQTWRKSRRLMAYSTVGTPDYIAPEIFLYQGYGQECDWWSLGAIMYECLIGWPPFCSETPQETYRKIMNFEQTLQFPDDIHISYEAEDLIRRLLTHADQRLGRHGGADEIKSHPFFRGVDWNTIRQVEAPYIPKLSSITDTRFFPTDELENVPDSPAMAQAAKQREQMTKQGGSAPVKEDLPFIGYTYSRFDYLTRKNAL
# T1 sequence (P43563 1-287 partner): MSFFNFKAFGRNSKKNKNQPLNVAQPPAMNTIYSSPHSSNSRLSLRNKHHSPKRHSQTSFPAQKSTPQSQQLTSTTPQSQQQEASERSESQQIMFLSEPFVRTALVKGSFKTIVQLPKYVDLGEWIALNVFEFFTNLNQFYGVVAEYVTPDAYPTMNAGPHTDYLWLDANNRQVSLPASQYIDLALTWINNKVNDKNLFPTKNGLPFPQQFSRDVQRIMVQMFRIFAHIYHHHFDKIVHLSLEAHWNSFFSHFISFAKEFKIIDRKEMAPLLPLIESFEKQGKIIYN
# B1: Ace2^102–306: Ace2 fragment, kinase substrate containing docking motif (protein, UniProt P21192 102-306, looked up, fragment)
# chain: ENNKVSHYSKKSMSSHKRGLSGTAIFGFLGHNKTLSISSLQQSILNMSKDPQPMELINELGNHNTVKNNNDDFDHIRENDGENSYLSQVLLKQQEELRIALEKQKEVNEKLEKQLRDNQIQQEKLRKVLEEQEEVAQKLVSGATNSNSKPGSPVILKTPAMQNGRMKDNAIIVTTNSANGGYQFPPPTLISPRMSNTSINGSPSR
# Key:
# Cbk1^251-756-Mob2 = molecular target: T1, Cbk1^251-756-Mob2; assay: FP direct titration, Cbk1^251-756-Mob2 (WT); format: binding
# Description: (§1) His6-Cbk1^251–756 was co-expressed with GST-Mob2 (full length or 45–287). Cbk1 kinase domain alone (352–756 or 352–692) was expressed as GST-Cbk1-His6. All constructs were bacterially expressed and purified on a Ni-NTA resin (Qiagen) followed by glutathione Sepharose beads (GE Biosciences). For crystallization, tags were cleaved with TEV protease followed by cation exchange chromatography on a Resource S column. All Cbk1 preparations were subsequently dialyzed into Cbk1 buffer (20 mM Tris-HCl, 150 mM NaCl, 2 mM DTT [pH 8.0]).
# (§2) For FP-based binding affinity measurements, different docking peptides (pepAce2: GSGSIIVTTNSANGGYQFP; pepSSD1: TTEQSDFKFP; pepHM: IGYTYSRFDY; pepHM-P: IGYpTYSRFDY) were N-terminally (pepAce2 and pepSSD1) or C-terminally (pepHM and pepHM-P) labeled with carboxyfluorescein (CF) fluorescent dyes.
# Change in the FP signal in direct binding affinity measurements was monitored as a function of increasing concentration of protein with a Synergy H4 (BioTek Instruments) plate reader in 384-well plates. The labeled peptides were at 20 nM in 20 mM Tris (pH 8.0), 100 mM NaCl, 0.05% Brij35P, 2 mM DTT. The resulting binding isotherms were fit to a quadratic binding equation. The affinity of the unlabeled peptides was measured in steady-state competition experiments: 20 nM labeled reporter was mixed with protein samples in a concentration to achieve ~60%–80% complex formation. Subsequently, increasing amounts of unlabeled peptide were added, and the FP signal was measured as described earlier for direct titration experiments. The Kd for each unlabeled peptide interaction was determined by fitting the data to a competition binding equation. Titration experiments were carried out in triplicate, and the average FP signal was used for fitting the data with OriginPro 7.
# Cbk1^251-756(F699A)-Mob2 = molecular target: T2, Cbk1^251-756(F699A)-Mob2 (Saccharomyces cerevisiae, UniProt P43563+P53894, F699A); assay: biochemical; format: binding
# T2 construct: His6-Cbk1^251–756 was co-expressed with GST-Mob2 (full length or 45–287); His6 (N); made in house
# T2 sequence (P53894 251-756 F699A, one chain of several): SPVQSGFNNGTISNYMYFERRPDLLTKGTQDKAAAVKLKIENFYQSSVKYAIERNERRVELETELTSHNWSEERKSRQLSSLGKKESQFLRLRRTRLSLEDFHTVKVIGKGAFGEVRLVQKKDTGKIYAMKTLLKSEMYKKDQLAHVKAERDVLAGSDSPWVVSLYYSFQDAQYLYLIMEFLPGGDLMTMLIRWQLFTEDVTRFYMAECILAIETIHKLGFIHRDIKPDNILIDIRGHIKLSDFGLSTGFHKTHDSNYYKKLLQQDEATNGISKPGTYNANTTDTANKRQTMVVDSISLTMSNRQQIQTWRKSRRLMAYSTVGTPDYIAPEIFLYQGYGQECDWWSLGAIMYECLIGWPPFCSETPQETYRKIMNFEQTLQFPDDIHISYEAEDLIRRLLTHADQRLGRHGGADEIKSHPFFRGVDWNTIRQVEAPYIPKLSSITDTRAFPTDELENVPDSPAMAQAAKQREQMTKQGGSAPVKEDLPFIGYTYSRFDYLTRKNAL
# Description: as §1, §2
# (§3) Change in the FP signal in direct binding affinity measurements was monitored as a function of increasing concentration of protein with a Synergy H4 (BioTek Instruments) plate reader in 384-well plates. The labeled peptides were at 20 nM in 20 mM Tris (pH 8.0), 100 mM NaCl, 0.05% Brij35P, 2 mM DTT. […] Subsequently, increasing amounts of unlabeled peptide were added, and the FP signal was measured as described earlier for direct titration experiments. The Kd for each unlabeled peptide interaction was determined by fitting the data to a competition binding equation. […]
# Cbk1^251-756(F447A)-Mob2 = molecular target: T3, Cbk1^251-756(F447A)-Mob2 (Saccharomyces cerevisiae, UniProt P43563+P53894, F447A); assay: biochemical; format: binding
# T3 construct: His6-Cbk1^251–756 was co-expressed with GST-Mob2 (full length or 45–287); His6 (N); made in house
# T3 sequence (P53894 251-756 F447A, one chain of several): as the sequence (P53894 251-756 F699A, one chain of several) above, with F197A, A449F counted along it
# Description: as §1, §2, §3
# Cbk1^Δ730–756–Mob2 = molecular target: T4, Cbk1^Δ730–756–Mob2 (Saccharomyces cerevisiae, UniProt P43563+P53894); assay: biochemical; format: binding
# T4 construct: His6-Cbk1^251–756 was co-expressed with GST-Mob2 (full length or 45–287); His6 (N); made in house
# Text: ND, not determined. […] (PDF) Click here for additional data file.
# Cbk1 = assay: In vitro kinase assay resolved by SDS-PAGE, Ace2/Ssd1 fragments; format: biochemical, Saccharomyces cerevisiae; conditions: Cbk1^352–756 kinase domain (S5D)
# Description: Kinase assays resolved by SDS-PAGE were conducted with GST-Ace2 or GST-Ssd1 fusions. Reactions contained 1–5 μM substrate, 100–250 nM Cbk1, 5 mM MnCl2, 2 mM DTT, 20 μM ATP, 10 μCi γ-^32P-ATP in Cbk1 buffer. Samples were removed at indicated time points and quenched with SDS-PAGE buffer, followed by SDS-PAGE separation. ^32P was visualized using a Storm phosphorimager (GE Biosciences) and quantified using ImageQuant software.
molecule,measurement,setting,value
CC[C@H](C)[C@H](NC(=O)[C@H](CO)NC(=O)CNC(=O)[C@H](CO)NC(=O)CN)C(=O)N[C@H](C(=O)N[C@H](C(=O)N[C@H](C(=O)N[C@H](C(=O)N[C@@H](CC(N)=O)C(=O)N[C@@H](CO)C(=O)N[C@@H](C)C(=O)N[C@@H](CC(N)=O)C(=O)NCC(=O)NCC(=O)N[C@@H](Cc1ccc(O)cc1)C(=O)N[C@@H](CCC(N)=O)C(=O)N[C@@H](Cc1ccccc1)C(=O)N1CCC[C@H]1C(=O)O)[C@@H](C)O)[C@@H](C)O)C(C)C)[C@@H](C)CC [pepAce2] (H-GSGSIIVTTNSANGGYQFP-OH),Kd,"Cbk1^251-756-Mob2; CF-labeled peptide 20 nM, Tris pH 8.0, triplicate, read-out: peptide binding affinity (table in Fig 5C)",5 µM
same,Kd,"Cbk1^251-756-Mob2; labeled synthetic peptides, Cbk1–Mob2 (S5H Fig), read-out: Kd",~6 µM
same,Kd,Cbk1^251-756(F699A)-Mob2,5 µM
CC[C@H](C)[C@H](N)C(=O)NCC(=O)N[C@@H](Cc1ccc(O)cc1)C(=O)N[C@H](C(=O)N[C@@H](Cc1ccc(O)cc1)C(=O)N[C@@H](CO)C(=O)N[C@@H](CCCNC(=N)N)C(=O)N[C@@H](Cc1ccccc1)C(=O)N[C@@H](CC(=O)O)C(=O)N[C@@H](Cc1ccc(O)cc1)C(=O)O)[C@@H](C)OP(=O)(O)O [pepHM-P] (H-IGY[pT]YSRFDY-OH),Kd,Cbk1^251-756(F447A)-Mob2,33 µM
same,Kd,Cbk1^Δ730–756–Mob2,~6 µM
B1,enhancement of phosphorylation by docking motif,Cbk1,100 fold
